Measurements taken from ChEMBL document CHEMBL5576125, “Discovery of Pyrazolopyrazines as Selective, Potent, and Mutant-Active MET Inhibitors with Intracranial Efficacy” (J Med Chem, 2024).
Activity calls are given as the source filed them. The calls are words filed in the database; no cut-off is given here.

Assays:
[1] = molecular target: T1, Hepatocyte growth factor receptor (Homo sapiens, UniProt P08581, D1228N); assay: Displacement of tracer 236 from N-terminal GST-tagged recombinant human MET D1228N mutant (956 to end residues) expressed in Sf9 insect cells incubated for 1 hr by TR-FRET assay
[2] = Displacement of tracer 236 from N-terminal GST-tagged recombinant human MET exon 14 deletion mutant (956 to end residues) expressed in Sf9 insect cells incubated for 1 hr by TR-FRET assay
[3] = molecular target: Hepatocyte growth factor receptor (Homo sapiens, UniProt P08581, F1200I); assay: Displacement of tracer 236 from N-terminal GST-tagged recombinant human MET F1200I mutant (956 to end residues) expressed in Sf9 insect cells incubated for 1 hr by TR-FRET assay
[4] = Displacement of tracer 236 from N-terminal GST-tagged recombinant human MET […] mutant (956 to end residues) expressed in Sf9 insect cells incubated for 1 hr by TR-FRET assay
[5] = molecular target: Hepatocyte growth factor receptor (Homo sapiens, UniProt P08581, Y1230H); assay: Displacement of tracer 236 from N-terminal GST-tagged recombinant human MET Y1230H mutant (956 to end residues) expressed in Sf9 insect cells incubated for 1 hr by TR-FRET assay
[6] = molecular target: T1, Hepatocyte growth factor receptor; assay: Inhibition of MET D1228N mutant (unknown origin) transfected in mouse NIH3T3 cells incubated for 1 hr by In-Cell Western assay; format: cell-based
[7] = Apparent permeability across apical to basolateral side in MDCKII-MDR1 cells at 1 uM incubated for 2 hrs in orbital shaker by LC-MS/MS analysis; format: ADME, cell-based, Canis lupus familiaris; details: dog, MDCK-MDR1
[8] = Metabolic stability in human hepatocytes assessed as clearance at 2 uM measured upto 120 mins by LC-MS/MS analysis; format: ADME, cell-based, Hepatocyte
[9] = Metabolic stability in mouse hepatocytes assessed as clearance at 2 uM measured upto 120 mins by LC-MS/MS analysis; format: ADME, cell-based, Hepatocyte
[10] = Efflux ratio of apparent permeability across basolateral to apical over apical to basolateral side in MDCKII-MDR1 cells at 1 uM incubated for 2 hrs in orbital shaker by LC-MS/MS analysis; format: ADME, cell-based, Canis lupus familiaris; details: dog, MDCK-MDR1
[11] = molecular target: Macrophage-stimulating protein receptor (Homo sapiens) (UniProt Q04912); assay: Inhibition of human RON incubated for 5 mins in presence of ATP by chelation-enhanced fluorescence based Beckman Coulter analysis relative to control
[12] = Clearance in female athymic nude Foxn1nu mouse at 1 mg/kg, iv administered as single dose and measured after 24 hrs by LC/MS analysis; format: ADME, organism-based; details: in vivo
[13] = Hepatic extraction ratio in female athymic nude Foxn1nu mouse at 1 mg/kg, iv administered as single dose and measured after 24 hrs by LC/MS analysis; format: ADME, organism-based; details: in vivo, read-out: ERH
[14] = Half life in female athymic nude Foxn1nu mouse at 1 mg/kg, iv administered as single dose and measured after 24 hrs by LC/MS analysis; format: ADME, organism-based; details: in vivo
[15] = Volume of distribution at steady state in female athymic nude Foxn1nu mouse at 1 mg/kg, iv administered as single dose and measured after 24 hrs by LC/MS analysis; format: ADME, organism-based; details: in vivo, read-out: Vdss
[16] = Cmax in female athymic nude Foxn1nu mouse plasma at 30 mg/kg, po administered as single dose and measured after 24 hrs by LC/MS analysis; format: ADME, organism-based
[17] = Cmax in female athymic nude Foxn1nu mouse brain at 30 mg/kg, po administered as single dose and measured after 24 hrs by LC/MS analysis; format: ADME, organism-based; details: in vivo
[18] = Tmax in female athymic nude Foxn1nu mouse at 30 mg/kg, po administered as single dose and measured after 24 hrs by LC/MS analysis; format: ADME, organism-based; details: in vivo
[19] = AUCinfinity in female athymic nude Foxn1nu mouse at 30 mg/kg, po administered as single dose and measured after 24 hrs by LC/MS analysis; format: ADME, organism-based; details: in vivo
[20] = Ratio of unbound drug concentration in female athymic nude Foxn1nu mouse brain to plasma at 30 mg/kg, po administered as single dose and measured after 24 hrs by LC/MS analysis; format: ADME, organism-based; details: read-out: K(p,uu,brain)
Cytochrome P450 = assay: Inhibition of CYP450 (unknown origin); format: ADME, protein assay; details: human
[21] = In vivo inhibition of MET in female athymic nude Foxn1nu mouse implanted with mouse NIH3T3 cells expressing luciferase and human MET exon 14 deletion construct with MET-D1228N Type I resistance mutation assessed as reduction in phospho-MET protein level in tumor by measuring residual activity at 30 to 100 mg/kg, po administered as single dose measured after 12 hrs by ELISA relative to control; format: functional; details: dose 30-100 mg/kg
Mus musculus = assay: In vivo inhibition of MET in female athymic nude Foxn1nu mouse xenografted with human Hs746T cells expressing MET exon 14 skipping mutation with MET amplification assessed as reduction in phospho-MET protein level in tumor at 3 to 100 mg/kg, po administered as single dose measured after 2 to 8 hrs by ELISA relative to control; format: functional, organism-based; details: dose 3-100 mg/kg, time 2-8 hrs
NIH3T3 [22] = assay: (§1) Antitumor activity against mouse NIH3T3 cells expressing luciferase and human MET exon 14 deletion construct with MET-D1228N Type I resistance mutation implanted in female athymic nude Foxn1nu mouse assessed as reduction in tumor burden at 30 mg/kg, po bid measured after 29 days by luminescent imaging based analysis; format: functional, organism-based; details: time 29.0 day
NIH3T3 [23] = assay: as §1, with “100” for “30”, “qd” for “bid”; format: functional, organism-based; details: time 29.0 day
NIH3T3 [24] = assay: as §1, with “median survival time” for “reduction in tumor burden”, “(reference value: 15.5 day)” for “by luminescent imaging based analysis”; format: functional; details: time 29 day
NIH3T3 [25] = assay: Antitumor activity against mouse NIH3T3 cells expressing luciferase and human MET exon 14 deletion construct with MET-D1228N Type I resistance mutation implanted in female athymic nude Foxn1nu mouse assessed as animal survival rate at 100 mg/kg, po qd measured until 80 days relative to control; format: functional; details: NIH3T3, 1920 h, time 80 day
Hs746T [26] = assay: Antitumor activity against human Hs746T cells expressing MET exon 14 skipping mutation with MET amplification xenografted in female athymic nude Foxn1nu mouse at 3 to 30 mg/kg, po bid administered for 14 days; format: functional, organism-based; details: dose 3-30 mg/kg, time 14.0 day
Hs746T [27] = assay: Antitumor activity against human Hs746T cells expressing MET exon 14 skipping mutation with MET amplification xenografted in female athymic nude Foxn1nu mouse at 100 mg/kg, po qd administered for 14 days; format: functional, organism-based; details: time 14.0 day
[28] = Ratio of unbound drug concentration in female athymic nude Foxn1nu mouse brain to plasma at 100 mg/kg, po administered as single dose and measured after 24 hrs by LC/MS analysis; format: ADME, organism-based; details: read-out: K(p,uu,brain)
[29] = molecular target: Vascular endothelial growth factor receptor 2 (Homo sapiens, UniProt P35968); assay: Inhibition of VEGFR2 in human Flp-In-293 cells by ELISA; format: toxicity, cell-based
Chain of Vascular endothelial growth factor receptor 2 (P35968 whole entry): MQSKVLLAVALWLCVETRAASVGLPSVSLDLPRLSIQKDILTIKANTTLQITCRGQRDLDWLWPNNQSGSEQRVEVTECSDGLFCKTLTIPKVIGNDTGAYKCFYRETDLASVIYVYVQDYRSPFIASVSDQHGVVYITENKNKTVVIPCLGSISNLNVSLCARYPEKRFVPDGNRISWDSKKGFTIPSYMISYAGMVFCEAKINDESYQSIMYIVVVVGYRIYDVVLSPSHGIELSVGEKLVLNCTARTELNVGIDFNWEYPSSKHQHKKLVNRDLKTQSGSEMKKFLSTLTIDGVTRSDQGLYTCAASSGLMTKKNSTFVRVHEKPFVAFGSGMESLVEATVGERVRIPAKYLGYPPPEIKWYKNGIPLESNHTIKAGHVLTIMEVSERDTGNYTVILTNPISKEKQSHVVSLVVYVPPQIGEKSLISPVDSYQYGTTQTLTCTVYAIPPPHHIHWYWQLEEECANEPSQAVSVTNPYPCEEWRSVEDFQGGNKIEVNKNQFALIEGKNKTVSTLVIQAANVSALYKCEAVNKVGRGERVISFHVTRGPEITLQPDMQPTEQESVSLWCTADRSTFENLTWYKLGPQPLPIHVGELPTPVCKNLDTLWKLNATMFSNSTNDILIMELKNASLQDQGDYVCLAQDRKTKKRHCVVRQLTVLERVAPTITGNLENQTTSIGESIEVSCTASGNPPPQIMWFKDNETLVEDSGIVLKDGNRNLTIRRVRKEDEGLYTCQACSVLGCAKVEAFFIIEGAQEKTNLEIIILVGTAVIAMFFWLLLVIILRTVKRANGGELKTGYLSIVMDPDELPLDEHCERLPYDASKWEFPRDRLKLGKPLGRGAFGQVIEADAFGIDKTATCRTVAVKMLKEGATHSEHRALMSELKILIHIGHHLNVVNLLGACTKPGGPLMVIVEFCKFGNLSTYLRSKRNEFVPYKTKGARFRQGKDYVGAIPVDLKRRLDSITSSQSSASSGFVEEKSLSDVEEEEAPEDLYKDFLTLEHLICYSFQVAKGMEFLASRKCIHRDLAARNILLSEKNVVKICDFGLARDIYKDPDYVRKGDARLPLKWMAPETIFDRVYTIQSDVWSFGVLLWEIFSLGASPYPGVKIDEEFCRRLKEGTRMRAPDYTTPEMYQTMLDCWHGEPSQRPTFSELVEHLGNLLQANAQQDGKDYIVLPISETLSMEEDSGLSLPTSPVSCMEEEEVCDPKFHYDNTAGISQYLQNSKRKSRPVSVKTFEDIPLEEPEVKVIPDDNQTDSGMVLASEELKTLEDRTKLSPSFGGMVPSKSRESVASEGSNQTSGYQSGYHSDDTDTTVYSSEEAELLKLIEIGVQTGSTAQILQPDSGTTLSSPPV

Chain of Hepatocyte growth factor receptor (Homo sapiens, UniProt P08581, Y1230H) (P08581 25-1390 Y1230H limits assumed): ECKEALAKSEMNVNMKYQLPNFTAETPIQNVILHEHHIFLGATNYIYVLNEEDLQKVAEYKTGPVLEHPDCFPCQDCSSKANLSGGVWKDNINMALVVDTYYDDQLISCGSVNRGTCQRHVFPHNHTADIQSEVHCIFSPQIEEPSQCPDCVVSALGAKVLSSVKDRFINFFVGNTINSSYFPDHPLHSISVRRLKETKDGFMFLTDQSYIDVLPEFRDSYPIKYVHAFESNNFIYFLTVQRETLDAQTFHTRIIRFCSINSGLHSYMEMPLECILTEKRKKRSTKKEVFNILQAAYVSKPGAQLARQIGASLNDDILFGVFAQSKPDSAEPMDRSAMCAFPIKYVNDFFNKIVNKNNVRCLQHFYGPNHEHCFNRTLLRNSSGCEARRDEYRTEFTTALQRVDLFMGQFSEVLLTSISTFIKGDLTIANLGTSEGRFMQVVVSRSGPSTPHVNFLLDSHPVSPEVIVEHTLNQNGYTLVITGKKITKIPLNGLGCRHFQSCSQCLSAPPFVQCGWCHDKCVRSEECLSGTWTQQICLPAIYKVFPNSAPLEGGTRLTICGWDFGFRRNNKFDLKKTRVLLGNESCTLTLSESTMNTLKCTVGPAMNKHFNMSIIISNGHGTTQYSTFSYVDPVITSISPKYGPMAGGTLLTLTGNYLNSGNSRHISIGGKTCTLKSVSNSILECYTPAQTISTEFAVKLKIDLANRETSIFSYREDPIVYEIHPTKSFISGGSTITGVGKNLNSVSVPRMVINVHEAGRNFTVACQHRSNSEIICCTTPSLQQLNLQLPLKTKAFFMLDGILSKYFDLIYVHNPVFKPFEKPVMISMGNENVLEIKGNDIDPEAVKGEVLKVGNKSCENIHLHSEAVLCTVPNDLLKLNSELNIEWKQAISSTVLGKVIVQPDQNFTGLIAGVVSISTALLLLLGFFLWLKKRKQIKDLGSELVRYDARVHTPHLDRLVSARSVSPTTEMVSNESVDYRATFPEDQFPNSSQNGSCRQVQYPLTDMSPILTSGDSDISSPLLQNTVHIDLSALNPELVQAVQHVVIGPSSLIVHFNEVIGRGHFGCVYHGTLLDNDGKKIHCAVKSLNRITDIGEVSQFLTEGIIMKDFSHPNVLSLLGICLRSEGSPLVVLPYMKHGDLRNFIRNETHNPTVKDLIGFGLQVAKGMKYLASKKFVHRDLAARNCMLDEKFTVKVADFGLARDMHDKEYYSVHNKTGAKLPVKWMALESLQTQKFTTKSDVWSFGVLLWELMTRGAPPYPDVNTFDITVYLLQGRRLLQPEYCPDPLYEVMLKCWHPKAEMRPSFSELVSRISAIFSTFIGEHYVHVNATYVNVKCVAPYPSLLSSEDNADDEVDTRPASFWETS
T1 sequence (P08581 25-1390 D1228N limits assumed): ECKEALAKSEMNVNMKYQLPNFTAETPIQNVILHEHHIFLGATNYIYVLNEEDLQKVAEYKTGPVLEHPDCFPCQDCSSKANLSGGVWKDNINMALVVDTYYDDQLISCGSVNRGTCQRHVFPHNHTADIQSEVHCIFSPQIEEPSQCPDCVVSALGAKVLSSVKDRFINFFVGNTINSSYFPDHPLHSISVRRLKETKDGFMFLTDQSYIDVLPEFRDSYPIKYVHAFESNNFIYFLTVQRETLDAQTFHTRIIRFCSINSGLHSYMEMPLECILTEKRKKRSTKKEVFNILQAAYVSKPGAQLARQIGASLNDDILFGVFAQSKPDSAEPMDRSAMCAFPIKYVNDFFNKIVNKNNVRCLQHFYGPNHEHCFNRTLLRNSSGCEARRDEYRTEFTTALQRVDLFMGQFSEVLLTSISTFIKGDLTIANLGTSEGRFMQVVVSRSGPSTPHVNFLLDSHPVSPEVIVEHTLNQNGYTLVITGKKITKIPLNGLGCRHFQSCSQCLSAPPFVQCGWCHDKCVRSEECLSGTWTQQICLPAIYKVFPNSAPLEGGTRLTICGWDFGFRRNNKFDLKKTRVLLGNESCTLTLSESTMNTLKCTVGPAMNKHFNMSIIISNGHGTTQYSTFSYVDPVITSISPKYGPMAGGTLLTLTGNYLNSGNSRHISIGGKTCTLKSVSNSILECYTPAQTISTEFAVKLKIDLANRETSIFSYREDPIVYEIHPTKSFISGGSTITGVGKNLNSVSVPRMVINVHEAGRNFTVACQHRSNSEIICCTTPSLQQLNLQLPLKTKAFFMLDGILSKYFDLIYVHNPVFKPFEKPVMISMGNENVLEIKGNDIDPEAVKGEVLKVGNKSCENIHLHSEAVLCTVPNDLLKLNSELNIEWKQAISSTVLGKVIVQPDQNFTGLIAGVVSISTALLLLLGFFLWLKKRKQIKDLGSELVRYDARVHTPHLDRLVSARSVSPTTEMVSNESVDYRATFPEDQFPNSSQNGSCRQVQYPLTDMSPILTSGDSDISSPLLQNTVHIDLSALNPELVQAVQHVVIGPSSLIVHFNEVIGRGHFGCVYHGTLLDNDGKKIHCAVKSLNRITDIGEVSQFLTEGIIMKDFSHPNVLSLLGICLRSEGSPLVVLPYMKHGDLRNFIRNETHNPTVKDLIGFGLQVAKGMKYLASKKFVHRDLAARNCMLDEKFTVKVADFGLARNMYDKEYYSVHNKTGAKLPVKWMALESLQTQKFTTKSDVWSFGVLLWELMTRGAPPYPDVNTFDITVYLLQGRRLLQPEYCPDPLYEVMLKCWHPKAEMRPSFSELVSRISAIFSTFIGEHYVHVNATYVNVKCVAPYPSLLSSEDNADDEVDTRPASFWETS

Cn1ccc([C@H]2C[C@H](N(c3cc(Cl)c(NC(=O)c4ccnn(-c5ccc(F)cn5)c4=O)cc3F)c3nccn4nccc34)C2)n1
IC50 [1]: 21 nM | IC50 [2]: 12 nM | IC50 [3]: 479 nM | IC50 [4]: 125 nM | IC50 [5]: 13 nM | IC50 [6]: 97 nM | Papp A→B at 2 h, 1 µM [7]: 6 ×10⁻⁶ cm/s | CLhep predicted at 2 µM [8]: 5 mL/min/kg | CLhep predicted at 2 µM [9]: 9 mL/min/kg | efflux ratio at 2 h, 1 µM [10]: 1

Cn1ccc([C@H]2C[C@H](N(c3cc(F)c(NC(=O)c4ccnn(-c5ccc(F)cn5)c4=O)cc3F)c3cccn4nccc34)C2)n1
IC50 [1]: 5 nM | IC50 [3]: 36 nM | IC50 [4]: 12 nM | IC50 [5]: 4 nM | IC50 [6]: 20 nM | Papp A→B at 2 h, 1 µM [7]: 5 ×10⁻⁶ cm/s | CLhep predicted at 2 µM [8]: 21 mL/min/kg | CLhep predicted at 2 µM [9]: 77 mL/min/kg

Cn1ccc([C@H]2C[C@H](N(c3cc(F)c(NC(=O)c4ccnn(-c5ccc(F)cn5)c4=O)cc3F)c3cc(F)cn4nccc34)C2)n1
IC50 [1]: 33 nM | IC50 [2]: 13 nM | IC50 [3]: 278 nM | IC50 [4]: 41 nM | IC50 [5]: 11 nM | IC50 [6]: 37 nM | Papp A→B at 2 h, 1 µM [7]: 2 ×10⁻⁶ cm/s | CLhep predicted at 2 µM [8]: 3 mL/min/kg | CLhep predicted at 2 µM [9]: 15 mL/min/kg

CC(C)(C#N)CN(c1cc(F)c(NC(=O)c2ccnn(-c3ccc(F)cn3)c2=O)cc1F)c1cccn2nccc12
IC50 [1]: 5 nM | IC50 [2]: 3 nM | IC50 [3]: 96 nM | IC50 [4]: 39 nM | IC50 [5]: 2 nM | IC50 [6]: 57 nM

Cn1ccc([C@H]2C[C@H](N(c3cc(F)c(NC(=O)c4ccnn(-c5ccc(F)cn5)c4=O)cc3F)c3nccn4nccc34)C2)n1
IC50 [1]: 6 nM | IC50 [2]: 6 nM | IC50 [3]: 90 nM | IC50 [4]: 15 nM | IC50 [5]: 5 nM | IC50 [6]: 23 nM | Papp A→B at 2 h, 1 µM [7]: 8 ×10⁻⁶ cm/s | CLhep predicted at 2 µM [8]: 13 mL/min/kg | CLhep predicted at 2 µM [9]: 35 mL/min/kg | efflux ratio at 2 h, 1 µM [10]: 1.1 | inhibition [11]: > 50% | clearance [12]: 9.5 mL/min/kg | hepatic extraction ratio at 24 h [13]: 0.106 | half-life [14]: 1.9 h | Vd [15]: 1.3 L/kg | Cmax [16]: 10500 ng/mL | Cmax [17]: 900 ng/mL | Tmax [18]: 2 h | AUC(0-inf) [19]: 113 µg·h/mL | Kp uu at 24 h [20]: 0.11 | inhibition (INH) (Cytochrome P450): Not Active | Activity [21]: <6% | inhibition (Mus musculus): Active | Activity (NIH3T3 [22]): Active | Activity (NIH3T3 [23]): Active | MST (NIH3T3 [24]): 33 days | survival at 100 mg/kg (NIH3T3 [25]): 100% | Activity (Hs746T [26]): Active | Activity (Hs746T [27]): Active | Kp uu at 24 h [28]: 0.24 | IC50 [29]: > 5000 nM
